Test results reported in patent US20050096564A1, “Method of distributing skin care products” (priority 2001, published 2005).

Columns and labels:
[1] = Study 2: vitamin C concentration in ISF and serum of subjects taking oral vitamin supplements; type: in vivo, human; conditions: Study 2, Supplement Yes
Source text: The laser made four pores at each collection site.

[2] = in vivo
Source text: The studies included non-smoking, female subjects of good health over the age of 35 years and under the age 55 years with skin type of III or less by the Fitzpatrick Skin classification. […] Acceptable subjects were chronologically enrolled in the study following a randomization code describing what treatment would be applied to which dorsal forearm. […] The subject applied a blinded emulsion designated by a letter to one dorsal forearm and an alternative emulsion with a different designation to the opposite arm, twice per day, for three weeks. […] ISF was extracted from the dorsal forearm, volar upper arm, and serum at one week (“Week 2”) and three weeks after dosing (“Week 4”) and two weeks after the cessation of dosing (“Week 6”).
ISF was extracted from both the treatment site (dorsal forearm) as well as an adjacent, untreated site volar upper arm) following one week of therapy and three weeks of therapy. Subjects ended treatment at this point and returned for a final extraction two weeks later.
The ISF collection period lasted between three and six hours, typically four hours.

O=C1O[C@H]([C@@H](O)CO)C(O)=C1O [Vitamin C, vitamin C]
Vitamin C concentration, MEAN ([1]; Serum): 1.36
Vitamin C concentration, MEAN ([1]; Sun-exposed site ISF): 1.00
Vitamin C concentration, MEAN ([1]; Sun-protected site ISF): 1.00
Influence of topical application on levels at an adjacent, untreated site or the serum [2]: does not influence
Response of serum level to topical therapy [2]: did not respond
